Legend:
caspase-3 [1] = test: Competitive ABPP with UV pre-activation of the probes; format: biochemical; settings: compound irradiated at 365 nm for 30 min, light source removed, then added to caspase-3 for 30 min; fluorescent ABP read-out
Procedure: Compounds were irradiated with UV light of 365 nm for 30 min and after removal of the light source added to caspase-3. Residual caspase activity was measured by using a fluorescent caspase ABP as in our previous experiments above.
(§1) Caspase-3, produced in E. coli and purified as described before, was reacted in PBS with 1 mM DTT. Samples were combined with the indicated probe and irradiated with a handheld UV lamp at 365 nm for 30 min at room temperature. For competition experiments with ‘pre-activation,’ the indicated probes were irradiated for 30 min prior to addition to caspase-3, and incubated for an additional 30 min. Next, ABP 13 was added (final concentration 1 μM) to label residual caspase-3 activity. The samples were incubated for 30 min at room temperature, after which 1/3rd volume of 4× Laemmli buffer was added. Samples were heated at 95 °C for 2 min and resolved by 15% SDS-PAGE. Gels were scanned using a Typhoon Trio+ fluorescent scanner with excitation at 532 nm and an emission filter of 580 nm. Gel images were processed with ImageJ (background subtraction with rolling ball radius of 50 pixels and automated contrast adjustment).
Figure 3 Non-covalent inhibition of caspase-3 by compounds 9 and 10. (A) Fluorescent labeling of caspase-3 by ψ(CH2NH) peptides 9–10 and triazolo peptides 11–12. […] (B) Deconvoluted ESI-MS of caspase-3. (C) Deconvoluted ESI-MS of caspase-3 after incubation with covalent activity-based probe (ABP) 13. Note that the active site, located on the large subunit, is modified. (D) Deconvoluted ESI-MS of caspase-3 after irradiation in the presence of benzophenone ψ(CH2NH) 10a, not resulting in covalent modification. […] (F) Structures of ψ(CH2NH) peptides 14 and 15 without photocrosslinker. (G) UV irradiation of ψ(CH2NH) peptides 14 and 15 in the presence of benzophenone leads to inhibition of caspase-3, as monitored by competitive ABPP. […] Ac-DEVD-aldehyde (100 nM) was used as a control compound, whereas 9a and 10a (10 μM) were irradiated for 10 min and reacted with sodium bisulfite for an additional 20 min before 30 min incubation with caspase-3 and read-out with a fluorescent caspase ABP.

caspase-3 [2] = test: ESI-MS on purified caspase-3 (covalent modification); format: binding; settings: 10a under irradiation at 365 nm
Excerpt: Our probes were designed to irreversibly photocrosslink to caspase-3. In order to show covalent complex formation, we made use of the alkyne function located at the N-terminus of all probes by installing a tetramethyl rhodamine fluorophore (TAMRA) via copper(I)-catalyzed azide alkyne cycloaddition. […] To exclude that this observation was due to our gel-based read-out, we also performed mass spectrometry experiments. […] This mass shift corresponded to the covalent modification (Figure 3C).
Intact proteins were analyzed on an orbitrap Fusion Lumos mass spectrometer equipped with a nanoelectrospray ion source (Thermo Fischer, Dreieich, Germany). Sample desalting was performed using Amicon Ultra-0.5 3K NMWL centrifugal filters (Merck Millipore, Darmstadt, Germany) according to the manufacturer’s protocol and samples were brought to a final concentration of approx. 1 pmol/µL (in 25% MeOH and 0.5% formic acid). […]
Figure 3 Non-covalent inhibition of caspase-3 by compounds 9 and 10. […] (G) UV irradiation of ψ(CH2NH) peptides 14 and 15 in the presence of benzophenone leads to inhibition of caspase-3, as monitored by competitive ABPP. […] Ac-DEVD-aldehyde (100 nM) was used as a control compound, whereas 9a and 10a (10 μM) were irradiated for 10 min and reacted with sodium bisulfite for an additional 20 min before 30 min incubation with caspase-3 and read-out with a fluorescent caspase ABP.

caspase-3 [3] = test: Gel-based competitive ABPP on recombinant caspase-3; format: biochemical; settings: 10 μM compound, PBS with 1 mM DTT, fluorescent ABP read-out on gel
Procedure: To check whether our probes function as inhibitors, competitive ABPP [28] was performed. Recombinant caspase-3 was incubated with probes 9a–10c, 11a and 12a with or without irradiation at 365 nm, followed by labeling of residually active caspase-3 with the fluorescent, caspase-directed activity-based probe (ABP) SV149, a tetramethylrhodamine derivative of KMB-01 [29]. Caspase activity itself was not affected by UV irradiation, as shown by bands of equal intensity with and without UV light (Figure 2A). […] To confirm inhibition, we also performed substrate cleavage assays using the fluorogenic aminomethyl coumarin substrate Ac-DEVD-AMC. […] Inhibition of active caspases could also be achieved in an apoptotic cell lysate (Figure 2D).
as §1
Figure 2 Inhibition of caspase-3. (A) Competitive activity-based protein profiling (ABPP) experiments using ψ(CH2NH) or triazolo peptide derivatives 9–12 with or without irradiation. Compounds 9a–12a were used at 10 μM final concentration, 9b, 9c, 10b and 10c at 100 μM. Inh = caspase inhibitor biotin-DEVD-AOMK, used at 100 nM concentration. (B) Representative progress curves of fluorescence produced by Ac-DEVD-AMC (50 μM) cleavage by caspase-3, irradiated with or without 10 μM of the indicated compounds. (C) Bar graph of residual caspase-3 activity of replicate experiments (n = 2) of those in (B). (D) Inhibition of executioner’s caspase-3 and -7 in lysates of HEK293 cells, treated with cytochrome c/dATP to induce apoptosis.

- Inhibition of caspase-3 after UV pre-activation of compound (caspase-3 [1]): still inhibited
- Covalent modification of caspase-3 (mass shift, ESI-MS) (caspase-3 [2]): did not reveal any modification
- Inhibition of caspase-3 activity (caspase ABP labeling) (caspase-3 [3]; irradiated at 365 nm for 30 min at room temperature): complete inhibition
- Inhibition of caspase-3 activity (caspase ABP labeling) (caspase-3 [3]; non-irradiated): no decrease in caspase ABP labeling
Substance: Hexynoyl-Asp-Glu-Val-Aspψ(CH2NH)-Ala-Bpa-NH2 [10a]

Source: article PMC6337261, “Short Peptides with Uncleavable Peptide Bond Mimetics as Photoactivatable Caspase-3 Inhibitors” (Molecules, 2019)
